# Measured values taken from article PMC7859440, “Transporter Gene Regulation in Sandwich Cultured Human Hepatocytes Through the Activation of Constitutive Androstane Receptor (CAR) or Aryl Hydrocarbon Receptor (AhR)” (Frontiers in Pharmacology, 2021).
# Several values for one entry are separate records, joined by “and”; a condition that tells them apart may be missing. Equal entries are not always repeated. Where two headings read alike, the source gives them in different places.
# Experiments:
# SLC29A2 (ENT2) = assay: gene induction in sandwich-cultured human hepatocytes (qRT-PCR); format: cell-based; details: SCHH, 72 h; TCDD 50 nM, OP 50 µM, CITCO 5 µM, PB 1,000 µM (highest conc.); mean ± SD, three donors
# SLC47A1 (MATE1) = assay: as above; format: cell-based; details: SCHH, 72 h; TCDD 50 nM, OP 50 µM, CITCO 5 µM, PB 1,000 µM (highest conc.); mean ± SD, three donors
# Description: (§1) Cryopreserved human hepatocytes were quickly thawed at 37°C and then transferred into hepatocyte thawing medium. Cells were pelleted at 100 × g for 10 min and then resuspended in hepatocyte complete plating medium (CP medium). The cells were then seeded at 65,000 cells per well in 96-well collagen I coated plates. After cell attachment (4–6 h post-seeding), CP medium was exchanged for ice-cold complete incubation medium (HI medium) containing BD Matrigel™ at the concentration of 0.25 mg/ml. The cells were then incubated overnight at 37°C in a humidified 5% CO2 incubator. […] Cell death or loss of adhesion of hepatocytes during or after treatment were examined by microscopy.
# (§2) A RNeasy 96 Kit (Qiagen) was used to extract the total cellular RNA from sandwich cultured hepatocytes in 96-well plates following the manufacturer's instructions. A total volume of 200 μL RNA was obtained via the column elution provided in the RNeasy kit. Five μL RNA extraction was mixed with TaqMan® Fast Virus 1-Step Master Mix (Life Technologies) in a final reaction volume of 20 μL and qRT-PCR was achieved using a QuantStudio 6 Flex Real-Time PCR System (Life Technologies), following the manufacturer's instructions. β-actin mRNA expression in the SCHH was used as a house-keeping gene for the normalization of target gene expressions. The mRNA levels in SCHH treated with AhR or CAR activators were expressed by a fold change, compared to the gene expressions without the treatment. The 2^−ΔΔCt method ([Livak and Schmittgen, 2001]) was used to analyze the relative changes in gene expression, where the Ct is the cycle number at which the fluorescence in the reaction crosses the preset arbitrary threshold; the ΔCt represents the difference between the Ct target and reference and the ΔΔCt is the difference between the ΔCt of the test and the ΔCt of the preassigned control. Gene expression for each condition is expressed as a fold-change of mean ± standard deviation (SD) from three independent donors (each performed in triplicate). All primer and probe sets were purchased from Life Technologies (Table 2). When concentration-dependent induction observed, the in vitro induction mRNA data were fitted using the sigmoid 3-parameter equation in GraphPad Prism (La Jolla, CA) to estimate the in vitro concentration of inducer that produced half the maximum induction values (EC50).
# SLC22A1 (OCT1) = assay: as above; format: cell-based
# Description: as §1, §2
# SLCO1B1 (OATP1B1) = assay: as above; format: cell-based
# Description: as §1, §2
# ABCC3 (MRP3) = assay: as above; format: cell-based
# Description: as §1, §2
# ABCC5 (MRP5) = assay: as above; format: cell-based
# Description: as §1, §2
# ABCC2 (MRP2) = assay: as above; format: cell-based
# Description: as §1, §2
# SLCO4C1 (OATP4C1) = assay: as above; format: cell-based; details: SCHH, 72 h; TCDD 50 nM, OP 50 µM, CITCO 5 µM, PB 1,000 µM (highest conc.); mean ± SD, three donors
# Description: as §1, §2
# ABCC6 (MRP6) = assay: as above; format: cell-based
# Description: as §1, §2
# ABCB1 (MDR1) = assay: as above; format: cell-based
# Description: as §1, §2
# SLCO2B1 (OATP2B1) = assay: as above; format: cell-based
# Description: as §1, §2
# SLCO1B3 (OATP1B3) = assay: as above; format: cell-based
# Description: as §1, §2
# ABCB11 (BSEP) = assay: as above; format: cell-based
# Description: as §1, §2
# ABCG2 (BCRP) = assay: as above; format: cell-based
# Description: as §1, §2
# ABCC4 (MRP4) = assay: as above; format: cell-based
# Description: as §1, §2
# SLC51B (OSTβ) = assay: as above; format: cell-based; details: SCHH, 72 h; TCDD 50 nM, OP 50 µM, CITCO 5 µM, PB 1,000 µM (highest conc.); mean ± SD, three donors
# SLC22A9 (OAT7) = assay: as above; format: cell-based; details: SCHH, 72 h; TCDD 50 nM, OP 50 µM, CITCO 5 µM, PB 1,000 µM (highest conc.); mean ± SD, three donors
# SLC16A1 (MCT1) = assay: as above; format: cell-based; details: SCHH, 72 h; TCDD 50 nM, OP 50 µM, CITCO 5 µM, PB 1,000 µM (highest conc.); mean ± SD, three donors
# SLC22A7 (OAT2) = assay: as above; format: cell-based; details: SCHH, 72 h; TCDD 50 nM, OP 50 µM, CITCO 5 µM, PB 1,000 µM (highest conc.); mean ± SD, three donors
# SLC15A1 (PEPT1) = assay: as above; format: cell-based; details: SCHH, 72 h; TCDD 50 nM, OP 50 µM, CITCO 5 µM, PB 1,000 µM (highest conc.); mean ± SD, three donors
# [1] = test system: 24 hepatic drug transporter genes (mRNA); assay: gene induction in sandwich-cultured human hepatocytes (qRT-PCR), transporter panel; format: cell-based; details: sandwich-cultured human hepatocytes (SCHH), generally, 24 transporter genes, read-out: average fold change (fold induction) of transporter genes
# SLC51A (OSTα) = assay: gene induction in sandwich-cultured human hepatocytes (qRT-PCR); format: cell-based; details: SCHH, 72 h; TCDD 50 nM, OP 50 µM, CITCO 5 µM, PB 1,000 µM (highest conc.); mean ± SD, three donors
# CYP3A4 = assay: in vitro
# Description: as §1
# as §2, with “The 2^−ΔΔCt method ([Livak and Schmittgen, 2001]) was used to analyze the relative changes in gene expression, where the Ct is the cycle number at which the fluorescence in the reaction crosses the preset arbitrary threshold; the ΔCt represents the difference between the Ct target and reference and the ΔΔCt is the difference between the ΔCt of the test and the ΔCt of the preassigned control.” left out
# CYP2B6 = assay: in vitro; details: for EC50 at 72 h: human
# Description: as §1
# as §2, with “The 2^−ΔΔCt method ([Livak and Schmittgen, 2001]) was used to analyze the relative changes in gene expression, where the Ct is the cycle number at which the fluorescence in the reaction crosses the preset arbitrary threshold; the ΔCt represents the difference between the Ct target and reference and the ΔΔCt is the difference between the ΔCt of the test and the ΔCt of the preassigned control.” left out
# UGT1A1 = assay: gene induction in sandwich-cultured human hepatocytes (qRT-PCR)
# Description: as §1, §2
# SLC22A5 (OCTN2) = assay: as above; format: cell-based; details: SCHH, 72 h; TCDD 50 nM, OP 50 µM, CITCO 5 µM, PB 1,000 µM (highest conc.); mean ± SD, three donors
# CYP1A2 = details: SCHH, 72 h; TCDD 50 nM, OP 50 µM, CITCO 5 µM, PB 1,000 µM (highest conc.); mean ± SD, three donors
# Description: as §1
# A RNeasy 96 Kit (Qiagen) was used to extract the total cellular RNA from sandwich cultured hepatocytes in 96-well plates following the manufacturer's instructions. A total volume of 200 μL RNA was obtained via the column elution provided in the RNeasy kit. […] Gene expression for each condition is expressed as a fold-change of mean ± standard deviation (SD) from three independent donors (each performed in triplicate). […]
# SLC29A1 (ENT1) = assay: gene induction in sandwich-cultured human hepatocytes (qRT-PCR); format: cell-based; details: SCHH, 72 h; TCDD 50 nM, OP 50 µM, CITCO 5 µM, PB 1,000 µM (highest conc.); mean ± SD, three donors
# SLC10A1 (NTCP) = assay: as above; format: cell-based; details: SCHH; for SLC10A1 (NTCP) mRNA fold change: 72 h, TCDD 50 nM, OP 50 µM, CITCO 5 µM, PB 1,000 µM (highest conc.), mean ± SD, three donors
# [2] = SCHH, 72 h, TCDD 50 nM, OP 50 µM, CITCO 5 µM, PB 1,000 µM (highest conc.), mean ± SD, three donors
# [3] = human, sandwich-cultured human hepatocytes (SCHH)
smiles,measurement,setting,value
"Clc1ccc(-c2nc3sccn3c2C=NOCc2ccc(Cl)c(Cl)c2)cc1 [CITCO, 6-(4-chlorophenyl)imidazo[2,1-b][1,3]thiazole-5-carbaldehyde O-(3,4-dichlorobenzyl)oxime]",SLC29A2 (ENT2) mRNA fold change,SLC29A2 (ENT2),[…]
same,EC50 at 72 h,CYP2B6; sandwich-cultured human hepatocytes (SCHH),0.16 ± 0.04 µM
same,EC50 at 72 h,UGT1A1; [3],> 5 µM
same,SLC10A1 gene suppression (reduction),"SLC10A1 (NTCP); 3 days, highest concentration treated",about 2 fold
"CCC1(c2ccccc2)C(=O)NC(=O)NC1=O [PB, phenobarbital]",SLC29A2 (ENT2) mRNA fold change,SLC29A2 (ENT2),0.9 ± 0.3 fold
same,SLC22A1 (OCT1) mRNA fold change,SLC22A1 (OCT1),1.5 ± 0.6 fold
same,SLCO1B1 (OATP1B1) mRNA fold change,SLCO1B1 (OATP1B1),1.5 ± 0.8 fold
same,ABCC3 (MRP3) mRNA fold change,ABCC3 (MRP3),1.0 ± 0.4 fold
same,ABCC5 (MRP5) mRNA fold change,ABCC5 (MRP5),1.2 ± 0.4 fold
same,ABCC2 (MRP2) mRNA fold change,ABCC2 (MRP2),1.5 ± 0.3 fold
same,ABCC6 (MRP6) mRNA fold change,ABCC6 (MRP6),1.3 ± 0.3 fold
same,ABCB1 (MDR1) mRNA fold change,ABCB1 (MDR1),1.3 ± 0.6 fold
same,SLCO2B1 (OATP2B1) mRNA fold change,SLCO2B1 (OATP2B1),1.8 ± 0.9 fold
same,SLCO1B3 (OATP1B3) mRNA fold change,SLCO1B3 (OATP1B3),0.9 ± 0.2 fold
same,ABCB11 (BSEP) mRNA fold change,ABCB11 (BSEP),1.1 ± 0.3 fold
same,ABCG2 (BCRP) mRNA fold change,ABCG2 (BCRP),1.6 ± 0.3 fold
same,ABCC4 (MRP4) mRNA fold change,ABCC4 (MRP4),1.8 ± 0.4 fold
same,SLC22A9 (OAT7) mRNA fold change,SLC22A9 (OAT7),0.6 ± 0.2 fold
same,SLC16A1 (MCT1) mRNA fold change,SLC16A1 (MCT1),1.1 ± 0.2 fold
same,SLC22A7 (OAT2) mRNA fold change,SLC22A7 (OAT2),0.5 ± 0.2 fold
same,SLC15A1 (PEPT1) mRNA fold change,SLC15A1 (PEPT1),1.1 ± 0.5 fold
same,SLC51A (OSTα) mRNA fold change,SLC51A (OSTα),0.9 ± 0.2 fold
same,EC50,CYP3A4; human,343 µM
same,EC50 at 72 h,CYP2B6,726 ± 655 µM
same,UGT1A1 mRNA fold change,UGT1A1,4.2 fold and 4.2 ± 1.9 fold
same,EC50,UGT1A1; human,639 ± 444 µM
same,SLC22A5 (OCTN2) mRNA fold change,SLC22A5 (OCTN2),0.8 ± 0.3 fold
same,CYP1A2 mRNA fold change,CYP1A2,1.3 ± 0.4 fold
same,SLC29A1 (ENT1) mRNA fold change,SLC29A1 (ENT1),0.9 ± 0.2 fold
same,SLC10A1 (NTCP) mRNA fold change,SLC10A1 (NTCP),1.4 ± 0.7 fold
